Several values for one entry are separate records, joined by “and”; a condition that tells them apart may be missing. Equal values may be shown once. Entries after “also recorded” stand apart in the source; their conditions may differ.
Tests used:
[1] = tested on: Penicillium expansum; assay: Protection of wounded apples against postharvest rot caused by Penicillium expansum (lesion diameter, percentage of protection); assay type: in vivo; set-up: Average infection: unit not given here
Method: Apples (Malus domestica Borkh cv. Golden) were harvested from commercial orchards maintained with standard cultural practices in Belgium and placed in regular long term storage. Commercial class I fruits were used. They were bought from wholesale dealers and stored in a cold room at 4±1° C. for maximum 15 days before use.
Penicillium expansum (blue mould) strains were initially isolated from apples in Gembloux Belgium. Conidia from pathogen were put in suspension in a glycerol solution (25%) and stored at −70° C. Starting from this stored material, the fungal strain was transferred to PDA medium at 25° C. Conidial suspensions were prepared in an aqueous sterile solution of Tween 20 (0.05%), and were adjusted to the required concentration (10^6 spores/ml) using a Bürker cell.
The antagonistic yeast strain was Candida oleophila Montrocher deposited under number 40564 at the BBCM™/MUCL Culture Collection of the Mycotheque de l'Universite Catholique de Louvain, hereinafter designated as “strain 0”.
This antagonistic yeast strain was isolated from apple surface and stored at −70° C. in a glycerol solution (25%). Before use, the yeast strain was subcultured three times successively at 24 hours intervals on PDA (Potato Dextrose Agar). At the third generation, yeast cells were removed from the culture medium and suspended in isotonic water (NaCl 0.85%). Suspension concentrations were adjusted to the required values after the establishment of a regression line in relation with the micro-organisms suspension absorbance (at 595 nm) and the number of colony forming units (cfu) of the same suspension spread onto PDA.
Fruits were disinfected by dipping for 2 minutes in sodium hypochlorite (10% of the commercial product). They were rinsed in sterile water and dried out under laminar flux before being wounded by removing 4 mm diameter and 2-3 mm deep blocks of tissue from three sites 4-5 cm apart along one side of the surface of the fruits.
The wounds were treated by application of 40 μl of compositions of the state of the art or compositions according to the invention.
After a 24 h at 20° C. incubation period in plastic boxes, the wounds were inoculated with 40 μl of the respective conidial suspensions of the pathogens. The fruits were incubated at 25° C.
[…] At least five fruits (15 wounds) were used per treatment. Most of the time, 15 fruits and 45 wounds were used per treatment.
The percentage of protection provided by the different treatments was calculated from the diameter of lesion caused by the fruit rot agent after the incubation time using the following formula: […]
wherein Y is the percentage of protection; DT is the mean diameter of lesions for the untreated control and DX is the mean diameter of lesions for the treated fruits.
The effect of the compositions according to the invention against postharvest apple rots caused by P. expansum was evaluated under controlled conditions.
(§1) The apples were wounded as described in Example 2 and treated by application of compositions comprising a salt according to the invention and 10^5 cfu C. oleophila, or compositions of the state of the art.
After incubation, the wounds were inoculated with Penicillum expansum. The fruits are further incubated. […] The percentage of protection provided by the different treatments was calculated as described in Example 2.
as §1

[2] = tested on: Botrytis cinerea; assay: Protection of wounded apples against Botrytis cinerea (lesion diameter, percentage of protection); assay type: in vivo; conditions: for Average infection / Efficiency %: Table 10, salt + strain O 10^5, CaCl2 20 g/l, CG 2 g/l, CGt 1.805 g/l, TC 0.848 g/l, PC 0.964 g/l, 5 days; for results of combination of salt with C. oleophila, in words (conclusions): salt combined with C. oleophila, apples, salts tested only in Example 5
[3] = Table 8, salt + strain O 10^5, CaCl2 20 g/l, CG 2 g/l, CCa 0.47 g/l, CBC 0.762 g/l, CPT 0.486 g/l, CPM 1.485 g/l, 7 days
[4] = Table 9, salt + strain O 10^5, CaCl2 20 g/l, CG 2 g/l, CCa 0.47 g/l, CBC 0.762 g/l, CPT 0.486 g/l, CPM 1.485 g/l, 11 days
[5] = salt + strain O 10^5 cfu/ml compared with strain O alone
[6] = salt combined with C. oleophila, apples
[7] = Table 3, first series, CG 2 g/l + strain O 10^5 cfu/ml, 7 days
[8] = Table 4, second series, CG 2 g + strain O 10^5 cfu/ml, 7 days
[9] = Table 5, third series, CG 2 g + strain O 10^5 cfu/ml, 7 days
[10] = Table 6a, salt + strain O 10^5, CG 2 g/l, TC 0.87 g/l, CCa 0.47 g/l, CL 1.34 g/l, CLG 1.3 g/l, CA 1.96 g/l, 7 days
[11] = Table 6b, salt + strain O 10^5, CG 2 g/l, TC 0.87 g/l, CCa 0.47 g/l, CL 1.34 g/l, CLG 1.3 g/l, CA 1.96 g/l, 7 days
[12] = Table 7, salt + strain O 10^5, CaCl2 20 g/l, CG 2 g/l, TC 0.87 g/l, CCA 0.47 g/l

Compound | Average infection [1, 3] | Efficiency % [1, 3] [%] | Average infection [1, 4] | Efficiency % [1, 4] [%] | results of combination of salt with C. oleophila, in words (conclusions) [1, 6] | Efficiency % [2] [%] | Average infection [1, 10] | Efficiency % [1, 10] [%] | Average infection [1, 11] | Efficiency % [1, 11] [%] | other results
O=P([O-])(O)O.O=P([O-])(O)O.[Ca+2] [CPM, calcium phosphate monobasic] | 0.1 | 94.4 | 0.7 | 86.6 | Very good results | – | – | – | – | – | protection against P. expansum, in words [1, 5]: good protection
N[C@@H](CCC(=O)[O-])C(=O)[O-].[Ca+2] [CGt, calcium glutamate] | – | – | – | – | – | 51.3 | – | – | – | – | Average infection [2]: 0.8
O=C([O-])CC(O)(CC(=O)[O-])C(=O)[O-].[K+].[K+].[K+] [PC, potassium citrate] | – | – | – | – | – | 66.4 | – | – | – | – | Average infection [2]: 0.5; results of combination of salt with C. oleophila, in words (conclusions) [2]: Very good results
O=P([O-])([O-])[O-].O=P([O-])([O-])[O-].[Ca+2].[Ca+2].[Ca+2] [CPT, calcium phosphate tribasic] | 0.4 | 84.1 | 0.9 | 82.1 | Very good results | – | – | – | – | – | protection against P. expansum, in words [1, 5]: good protection
calcium gluconate [CG] | 0.5 | 77.4 | 1.5 | 70.5 | Very good results | 60.7 | 4.8 | 73.8 | 6.50 | 74.2 | Average infection [1, 7]: 1.5; Protection Efficiency % [1, 7]: 87.3%; Average infection [1, 8]: 1.2; Protection Efficiency % [1, 8]: 90.7%; Average infection [1, 9]: 2.7; Protection Efficiency % [1, 9]: 79.3%; Average infection [1, 12]: 1.7; Efficiency % [1, 12]: 93.5%; protection against P. expansum, in words [1, 5]: improved the protection; also recorded: better and enhanced efficacy; protection against P. expansum, in words ([1]; salt + strain O 10^5 cfu/ml compared with strain O alone, listed as calcium gluconate): good protection
O=[N+]([O-])[O-].O=[N+]([O-])[O-].[Ca+2] [CN, Calcium Nitrate, reference compound] | – | – | – | – | – | – | – | – | – | – | Average infection ([1]; in vivo): 7.6 and 10.9; protection against P. expansum, in words ([1]; in vivo): less efficient
calcium bicarbonate [CBC] | 0.5 | 76.5 | 2.1 | 59.0 | Very good results | – | – | – | – | – | protection against P. expansum, in words [1, 5]: good protection
calcium ascorbate | – | – | – | – | – | – | 5.4 | 70.9 | 5.31 | 86.7 | results of combination of salt with C. oleophila, in words (conclusions) ([1]; in vivo): Very good results
CC(O)C(=O)[O-].CC(O)C(=O)[O-].[Ca+2] (stereo not drawn) [CL, calcium lactate] | – | – | – | – | – | – | 7.7 | 58.1 | 6.06 | 82.5 | results of combination of salt with C. oleophila, in words (conclusions) ([1]; in vivo): Very good results
N[C@@H](CCC(=O)[O-])C(=O)[O-].[K+].[K+] [potassium glutamate] | – | – | – | – | – | – | – | – | – | – | results of combination of salt with C. oleophila, in words (conclusions) [2]: Very good results
calcium lactogluconate [CLG] | – | – | – | – | Very good results | – | 5.6 | 69.4 | 6.21 | 86.3 | –
O=C([O-])[O-].[Ca+2] [CCa, calcium carbonate] | – | – | – | – | – | – | – | – | – | – | Efficiency % ([1]; in vivo): 77.9% and 92.8% and 97.2% and 88.6% and 85.1%; protection against P. expansum, in words ([1]; in vivo): good protection; results of combination of salt with C. oleophila, in words (conclusions) ([1]; in vivo): Very good results
[Ca+2].[Cl-].[Cl-] [CaCl2, reference compound] | 0.3 | 87.6 | 0.6 | 87.7 | – | 82.4 | – | – | – | – | Average infection [1, 12]: 0.7; Efficiency % [1, 12]: 97.4%; Average infection [2]: 0.3
O=C([O-])CC(O)(CC(=O)[O-])C(=O)[O-].O=C([O-])CC(O)(CC(=O)[O-])C(=O)[O-].[Ca+2].[Ca+2].[Ca+2] [TC, tricalcium citrate] | – | – | – | – | – | 78.9 | 2.8 | 84.8 | 6.67 | 83.3 | Average infection [1, 12]: 1.0; Efficiency % [1, 12]: 96.4%; results of combination of salt with C. oleophila, in words (conclusions) ([1]; in vivo): Very good results; Average infection [2]: 0.3

Source: patent publication US20080160101A1, “Composition For Use Against One Or More Pathogens” (Bionext, priority 2004, published 2008)
